Measurements as given in US9968694B2, “Compositions and methods for non-invasive imaging” (MERRIMACK PHARMACEUTICALS, INC., priority 2012, dated 2018).
Read-outs that look alike come from different tables or passages of the source.

Tests used:
[1] = Cu complex formation in HS buffer (appearance, precipitation); type: physicochemical; conditions: 0.1 mM chelator and Cu in HS buffer pH 6.5
Method: Cu:4-DEAP-ATSC and Cu:ATSM complexes were formed as follows. In 1 mL HS were added 5 μL of 20 mM CuSO4 and 5 μl of 20 mM 4-DEAP-ATSC (in DMSO) or 5 μL of 20 mM ATSM (in DMSO). […] The chelator and Cu concentration was 0.1 mM.

[2] = ^64Cu chelation efficiency of 4-DEAP-ATSC by instant thin layer chromatography (ITLC); type: physicochemical
Description: […] An instant thin layer chromatography (ITLC) assay was used for quantifying the fractions of uncomplexed ^64Cu and ^64Cu(II)-4-DEAP-ATSC complex in the chelation mixture. The uncomplexed ^64Cu can be detected at the solvent front, while the ^64Cu(II)-4-DEAP-ATSC complex remained at the origin where the sample is spotted.

[3] = Efficiency of ^64Cu:4-DEAP-ATSC loading into liposomes, size exclusion chromatography; type: physicochemical
Method: The efficiency of liposome loading for Step 2 (see FIG. 3) was determined. […] Encapsulated (liposomal) radioactivity was separated from total radioactivity using size exclusion chromatography. From this it was determined that >90% of the ^64Cu was loaded into the liposome at 4-DEAP-ATSC:lipid ratios <2 mol % as shown in Table 2.

[4] = Storage stability of 4-DEAP-ATSC formulations (degradation); type: physicochemical
Method: Various 4-DEAP-ATSC formulations (see Table 10 below) were stored under different conditions. At designated time points, samples were collected where their storage stability were evaluated by functional readouts.
4-DEAP-ATSC was formulated in citrate buffer in a range of pH (pH 4-7). […] At a pH of between 6 and 7, the rates of degradation were very similar, with less than 15% degradation observed over a 4-month period when stored at −20° C. or 4° C.
4-DEAP-ATSC formulated in citrate buffer was stored at 4 different temperatures (−20° C., 4° C., 30° C., and 37° C.). […] (>60%) over a 1-month period. On the other hand, 4-DEAP-ATSC formulations stored at −20° C. and 4° C. can be stably preserved with less than 15% of degradation detected over a period of 4 months.
Various 4-DEAP-ATSC formulations were lyophilized and stored under different conditions to study the effect of lyophilization on their storage stability. […] In addition, mannitol was added to the formulation to serve as a bulking agent for lyophilization.
A set of 4-DEAP-ATSC formulations was filled with argon as an alternative means to improve storage stability of the liquid formulations. […] Significant degradation was still detected in formulations stored at elevated temperatures (30° C. and 37° C.). Additionally, storage stability of inert gas-filled lyophilized formulations was similar to air-filled lyophilized formulations (FIG. 19F).

[5] = over several weeks, cited from earlier work

CNC(=S)NN=C(C)C(C)=NNC(=S)NC [ATSM, diacetyl 4-methylthiosemicarbazone, reference compound]
appearance of Cu complex sample [1]: became turbid and developed a brown precipitate

CCN(CC)CCCNC(=S)NN=C(C)C(C)=NNC(=S)NCCCN(CC)CC [Sample 4-DEAP-ATSC, diacetyl 4,4′bis (3-(N,N-diethylamino)propyl)thiosemicarbazone]
Chelation Efficiency ([2]; Specific Radioactivity 0.01 mCi/nmol): 11-46% | Chelation Efficiency ([2]; Specific Radioactivity 0.04 mCi/nmol): 98% | Chelation Efficiency ([2]; Specific Radioactivity 0.07 mCi/nmol): 68-97% | Chelation Efficiency ([2]; Specific Radioactivity 0.08 mCi/nmol): 99% | Chelation Efficiency ([2]; Specific Radioactivity 0.09 mCi/nmol): 99% | Chelation Efficiency ([2]; Specific Radioactivity 0.1 mCi/nmol): 99-100% | Chelation Efficiency ([2]; Specific Radioactivity 0.15 mCi/nmol): 98-99% | Chelation Efficiency ([2]; Specific Radioactivity 0.17 mCi/nmol): 96% | Chelation Efficiency ([2]; Specific Radioactivity 0.18 mCi/nmol): 94% | Chelation Efficiency ([2]; Specific Radioactivity 0.2 mCi/nmol): 96-99% | Chelation Efficiency ([2]; Specific Radioactivity 0.3 mCi/nmol): 98% | Chelation Efficiency ([2]; Specific Radioactivity 0.65 mCi/nmol): 99% | Chelation Efficiency ([2]; Specific Radioactivity 13.1 mCi/nmol): 99% | efficiency of chelation ([2]; specific radioactivities ranging from 0.07-0.3 mCi/nmol): 94-99% | appearance of Cu complex sample [1]: remained clear, without any signs of precipitation | ^64Cu Loading Efficiency ([3]; 4-DEAP-ATSC:Lipid Ratio 0.01% (mol %)): 96-98% | ^64Cu Loading Efficiency ([3]; 4-DEAP-ATSC:Lipid Ratio 0.04% (mol %)): 96-98% | ^64Cu Loading Efficiency ([3]; 4-DEAP-ATSC:Lipid Ratio 0.10% (mol %)): 95-97% | ^64Cu Loading Efficiency ([3]; 4-DEAP-ATSC:Lipid Ratio 0.15% (mol %)): 92-97% | ^64Cu Loading Efficiency ([3]; 4-DEAP-ATSC:Lipid Ratio 0.25% (mol %)): 92-97% | ^64Cu Loading Efficiency ([3]; 4-DEAP-ATSC:Lipid Ratio 0.40% (mol %)): 94-98% | ^64Cu Loading Efficiency ([3]; 4-DEAP-ATSC:Lipid Ratio 0.50% (mol %)): 92-96% | ^64Cu Loading Efficiency ([3]; 4-DEAP-ATSC:Lipid Ratio 0.67% (mol %)): 96% | ^64Cu Loading Efficiency ([3]; 4-DEAP-ATSC:Lipid Ratio 0.75% (mol %)): 92% | ^64Cu Loading Efficiency ([3]; 4-DEAP-ATSC:Lipid Ratio 1% (mol %)): 93-98% | ^64Cu Loading Efficiency ([3]; 4-DEAP-ATSC:Lipid Ratio 2% (mol %)): 91-97% | ^64Cu Loading Efficiency ([3]; 4-DEAP-ATSC:Lipid Ratio 4.20% (mol %)): 86% | ^64Cu Loading Efficiency ([3]; 4-DEAP-ATSC:Lipid Ratio 5.00% (mol %)): 92-93% | ^64Cu Loading Efficiency ([3]; 4-DEAP-ATSC:Lipid Ratio 10% (mol %)): 82-92% | ^64Cu Loading Efficiency ([3]; 4-DEAP-ATSC:Lipid Ratio 25% (mol %)): 90% | ^64Cu Loading Efficiency ([3]; 4-DEAP-ATSC:Lipid Ratio 50% (mol %)): 71% | ^64Cu loaded into the liposome ([3]; 4-DEAP-ATSC:lipid ratios <2 mol %): > 90% | degradation ([4]; citrate buffer pH between 6 and 7, 4-month period, stored at −20° C. or 4° C.): less than 15% | degradation ([4]; citrate buffer, stored at 30° C. and 37° C., 1-month period): > 60% | degradation ([4]; citrate buffer, stored at −20° C. and 4° C., period of 4 months): less than 15% | effect of inert gas atmosphere on storage stability ([4]; liquid formulations filled with argon): did not improve storage stability | effect of lyophilization on storage stability ([4]; lyophilized formulations): effective method to inhibit degradation | effect of mannitol on storage stability ([4]; mannitol as bulking agent for lyophilization): no effect on the storage stability

[Cu] [copper]
Toxic dose levels ([5]; 65 kg adult): ~154 µg/kg | Toxic dose levels [5]: > 10 mg/person/day
